The source made the active and inactive calls. The rule behind the calls is not given here.

Consider 66 compounds from PubChem BioAssay AID1361 (SRMLSC, 2008).

This assay in a line: mitochondrial fusion inhibitors, confirmation, cell-based, chemical genetic, wild-type and mutant (AID 1361). To be noted: Cell-based mitochondrial fusion phenotype, imaging.
Where [1] appears, read: mutant cells, measured here: mutant cell line IC50.

In the case of `CCCN(CCC)CCCNC(=O)CS(=O)Cc1nc(-c2ccc(OC)c(OC)c2)oc1C` (configuration not stated), the IC50 (commonly the concentration that gives 50% inhibition) (WT cells) was > 25 µM (inactive) and the IC50 under setting [1] is greater than 25 µM.

Regarding `Cc1ccc(NC(=S)Nc2ccc(C(C)C)cc2)cc1S(=O)(=O)N1CCCCCC1`, the half-maximal inhibitory concentration (IC50) is 15 µM (WT cells) and greater than 25 µM under setting [1].

Consider `CCCCCCc1nc2ccccc2c(=O)n1NC(=O)c1c(O)c2cccc3c2n(c1=O)CCC3`, for which the IC50 was 10.5 µM (WT cells) and greater than 25 µM under setting [1].

For `Cc1ccc(NNC(=O)C(O)(c2cccc(C(F)(F)F)c2)c2cccc(C(F)(F)F)c2)cc1`, the IC50 was 22.3 µM (WT cells) and greater than 25 µM under setting [1].

For `COC(=O)c1c(N)n(Cc2ccc(OC)cc2)c2nc3ccccc3nc12`, the IC50 (WT cells) was > 25 µM (inactive) and the IC50 under setting [1] was greater than 25 µM.

`Cc1ccc(C2=CC(C)(c3ccc(C)cc3)Nc3nc(C(F)(F)F)nn32)cc1` (configuration not stated): the IC50 reads like this: (WT cells) 7.63 µM; under setting [1], greater than 25 µM.

For the compound `Cc1[nH][nH]c(=O)c1C(c1c(C)[nH][nH]c1=O)c1cn(Cc2ccccc2Cl)c2ccccc12`, the IC50 was > 25 µM (inactive) (WT cells) and greater than 25 µM under setting [1].

In the case of `CCOC(=O)c1c(C)[nH]c(C(=O)OCC(=O)Nc2cc(Cl)ccc2OC)c1C`, the IC50 by setting is: (WT cells) > 25 µM (inactive); under setting [1], greater than 25 µM.

As for `Cc1ccc(Nc2ccc(C(=O)O)cc2N)cc1`, the IC50 is, setting by setting: (WT cells) > 25 µM (inactive); under setting [1], greater than 25 µM.

As to `CCOC(=O)C1=C(C)N=C2SCCC(=O)N2C1c1sccc1C` (configuration not stated), the IC50 runs as follows: (WT cells) > 25 µM (inactive); under setting [1], greater than 25 µM.

For the compound `CCC(C)(C)NC(=O)CN(C(=O)c1snc(C(N)=O)c1N)c1ccc2c(c1)OCCO2`, the IC50 runs as follows: (WT cells) > 25 µM (inactive); under setting [1], greater than 25 µM.

As to `C/C(N)=C(/C#N)C(=O)COC(=O)c1cc(S(=O)(=O)N2CCCCC2)ccc1C`, the IC50 was > 25 µM (inactive) (WT cells) and greater than 25 µM under setting [1].

In the case of `CC12CCC(c3c(C(=O)O)nn(-c4ccc(F)cc4)c31)C2(C)C` (configuration not stated), the IC50 runs as follows: (WT cells) > 25 µM (inactive); under setting [1], greater than 25 µM.

On to `N#CCc1ccc(NS(=O)(=O)c2ccc(C3CCCCC3)cc2)cc1`, for which the 50% inhibitory concentration (IC50) (WT cells) is 22.8 µM and the half-inhibitory concentration (IC50) under setting [1] was greater than 25 µM.

Regarding `O=C(Nc1ccc(F)cc1)N1CC2CC(C1)c1cccc(=O)n1C2` (configuration not stated), the IC50 (WT cells) was > 25 µM (inactive) and the IC50 under setting [1] was greater than 25 µM.

As for `CCOC(=O)C1=NN(c2cccc(C)c2)C2(S1)SC(C(C)=O)=C(C)N2c1ccccc1` (configuration not stated), the IC50 runs as follows: (WT cells) 8.2 µM; under setting [1], greater than 25 µM.

As for `C(=N\Nc1nc(Nc2ccccc2)nc(Nc2ccccc2)n1)/c1cccnc1`, the IC50 was 20.9 µM (WT cells) and greater than 25 µM under setting [1].

Regarding `O=C(CCCCCn1c(=S)[nH]c2cc3c(cc2c1=O)OCO3)N1CCN(C(=O)c2ccco2)CC1`, the IC50 runs as follows: (WT cells) > 25 µM (inactive); under setting [1], greater than 25 µM.

For the compound `CCCCCOc1ccc2oc(=O)c3c(c2c1)CCCN3C(=O)CN1CCCC(C(=O)OCC)C1` (configuration not stated), the IC50 by setting is: (WT cells) > 25 µM (inactive); under setting [1], greater than 25 µM.

With `CC1CCC(C(C)C)C(OC(=O)COC(=O)c2ccccc2N)C1` (configuration not stated), the 50% inhibitory concentration (IC50) by setting is: (WT cells) 17.9 µM; under setting [1], greater than 25 µM.

Regarding `CC1CCCN(C(=O)N2c3ccccc3Sc3ccccc32)C1` (configuration not stated), the IC50 is 18.8 µM (WT cells) and greater than 25 µM under setting [1].

On to `COc1ccc(C(=O)N(Cc2nc(-c3ccc(C)cc3)no2)C2CCCCC2)cc1OC`, for which the IC50 reads like this: (WT cells) 20.2 µM; under setting [1], greater than 25 µM.

`O=C(C1=C[C@@H](c2csc3ccccc23)C[C@@H](OCc2ccc(CO)cc2)O1)N1CCN(Cc2ccccc2)CC1`: the IC50 by setting is: (WT cells) 5.83 µM; under setting [1], greater than 25 µM.

`FC(F)(F)c1cc(-c2ccco2)nc(NCc2ccc(Cl)cc2)n1`: the IC50 was 14.8 µM (WT cells) and greater than 25 µM under setting [1].

As to `COc1ccc(CC(=O)N2CCOCC2)cc1OC`, the IC50 is > 25 µM (inactive) (WT cells) and greater than 25 µM under setting [1].

With `CC(C)(C)n1nnnc1C(c1cccnc1)N(Cc1ccccc1)Cc1cccs1` (configuration not stated), the IC50 runs as follows: (WT cells) 9.97 µM; under setting [1], greater than 25 µM.

As to `O=C(Nc1nnc(C2CC2)s1)c1cc(-c2ccccc2)nn1-c1ccccc1`, the IC50 reads like this: (WT cells) 8.41 µM; under setting [1], 17 µM.

With `CN1/C(=C\C(=O)Nc2ccc(Br)cc2)C(C)(C)c2ccccc21`, the IC50 was 5.66 µM (WT cells) and 16.7 µM under setting [1].

With `Cn1c(=O)n(C)c2cc([N+](=O)[O-])c(N3CCN(S(=O)(=O)c4ccc(C(C)(C)C)cc4)CC3)cc21`, the IC50 by setting is: (WT cells) 5.99 µM; under setting [1], greater than 25 µM.

In the case of `C(=N\Nc1nc(Nc2ccccc2)nc(N2CCCCC2)n1)/c1ccco1`, the 50% inhibitory concentration (IC50) (WT cells) is 22.5 µM and the IC50 under setting [1] was greater than 25 µM.

Take `O=C(CCn1nc(-c2ccccc2)c2ccccc2c1=O)NCC1CCCO1` (configuration not stated): the IC50 (WT cells) is > 25 µM (inactive) and the IC50 under setting [1] is greater than 25 µM.

As for `O=C(CCc1ccccc1)Nc1nnc(-c2ccc3c(c2)CCCC3)o1`, the 50% inhibitory concentration (IC50) is 8.76 µM (WT cells) and greater than 25 µM under setting [1].

For `CC(C)(O)[C@H]1O[C@H]2CC[C@@]3(C)[C@@](O)(CC[C@H]4Cc5c([nH]c6ccccc56)[C@@]43C)C2=CC1=O`, the IC50 was 11.2 µM (WT cells) and greater than 25 µM under setting [1].

On to `O=C(COC(=O)c1ccc([N+](=O)[O-])s1)Nc1ncc(C(F)(F)F)cc1Cl`, for which the IC50 by setting is: (WT cells) 18.3 µM; under setting [1], greater than 25 µM.

For the compound `CC(C)OC(=O)C(C(=O)C(F)(F)F)c1cc(NS(=O)(=O)c2ccc3ccccc3c2)c2ccccc2c1O` (configuration not stated), the IC50 runs as follows: (WT cells) 15.1 µM; under setting [1], greater than 25 µM.

As to `CCCN(Cc1ccccc1)C(=S)Nc1ccc(SC(F)F)cc1`, the IC50 reads like this: (WT cells) 20.6 µM; under setting [1], greater than 25 µM.

In the case of `CCOc1ccc(Cc2c(Cl)nc(SC)nc2N(C)C)cc1`, the IC50 by setting is: (WT cells) 11.8 µM; under setting [1], greater than 25 µM.

For `CCOC(=O)C(C)c1nc2ccccc2[nH]c1=O` (configuration not stated), the IC50 is > 25 µM (inactive) (WT cells) and greater than 25 µM under setting [1].

Turning to `CCOC(=O)C1=C(Nc2ccccc2)CC(C)(O)C(C(=O)OCC)C1c1ccc(Cl)cc1` (configuration not stated), the IC50 runs as follows: (WT cells) 15.6 µM; under setting [1], greater than 25 µM.

Take `CCN1CCN(c2ccc(NC(=O)c3ccc4c(c3)OCO4)cc2)CC1`: the IC50 is > 25 µM (inactive) (WT cells) and greater than 25 µM under setting [1].

`COc1cccc(C2CN(c3ccc(F)cc3F)N=C2c2cccs2)c1OC` (configuration not stated): the IC50 runs as follows: (WT cells) 10 µM; under setting [1], greater than 25 µM.

For `S=C(Nc1ccccc1Oc1ccccc1)Nc1cccc(Cl)c1Cl`, the IC50 reads like this: (WT cells) 12.6 µM; under setting [1], 22.4 µM.

In the case of `Cc1ccc2nc(NCCCNC(=O)c3cnccn3)c(C#N)cc2c1`, the IC50 is > 25 µM (inactive) (WT cells) and greater than 25 µM under setting [1].

As to `CC(C)Cn1c(CN(Cc2ccccc2)Cc2ccccc2)nc2c1c(=O)n(C)c(=O)n2C`, the IC50 is, setting by setting: (WT cells) 11.5 µM; under setting [1], greater than 25 µM.

Consider `Cc1ccc(C(C)C)c(OCc2ccc(C(=O)N/N=C/c3ccc(O)cc3O)cc2)c1`, for which the IC50 was > 25 µM (inactive) (WT cells) and greater than 25 µM under setting [1].

`O=C1Nc2ccc(Cl)cc2C12Nc1ccccc1-c1nnc(SCc3ccccc3F)nc1O2` (configuration not stated): the IC50 (WT cells) is > 25 µM (inactive) and the half-inhibitory concentration (IC50) under setting [1] was greater than 25 µM.

As for `Cc1c(C)c2ccc(OC3CCCCC3=O)cc2oc1=O` (configuration not stated), the IC50 is, setting by setting: (WT cells) > 25 µM (inactive); under setting [1], greater than 25 µM.

`CCOC(=O)C1CCN(CC(=O)Nc2cc(C)nn2-c2nc3ccccc3s2)CC1`: the IC50 is, setting by setting: (WT cells) > 25 µM (inactive); under setting [1], greater than 25 µM.

Turning to `CCOC(=O)C1=C(C)Nc2sc(C(=O)c3ccc(F)cc3)c(N)c2C1c1ccc(C(=O)OC)cc1` (configuration not stated), the IC50 was 2.57 µM (WT cells) and greater than 25 µM under setting [1].

With `O=C(COC(=O)CCCOc1ccc(Cl)cc1Cl)Nc1cccc(Cl)c1`, the IC50 (WT cells) is 24 µM (inactive) and the IC50 under setting [1] was 22.8 µM.

Take `CC(C)Nc1nc(Oc2cccc(Cl)c2Cl)cc(C(F)(F)F)n1`: the IC50 is 23.6 µM (WT cells) and greater than 25 µM under setting [1].

Consider `CC(C)=CCc1c2c(c3occ(-c4ccc(O)cc4)c(=O)c3c1O)C=CC(C)(C)O2`, for which the IC50 (WT cells) is 24.7 µM and the IC50 under setting [1] is greater than 25 µM.

In the case of `CCCCC(=O)NC(=S)Nc1ccccc1N1CCCCC1`, the IC50 is 19.8 µM (WT cells) and greater than 25 µM under setting [1].

For `O=c1ccccn1Cc1c(Cl)cccc1Cl`, the IC50 (WT cells) is > 25 µM (inactive) and the IC50 under setting [1] was greater than 25 µM.

For the compound `CC1(C)CC(=O)C(C=Nc2ccc3[nH]ncc3c2)=C(O)C1`, the IC50 reads like this: (WT cells) > 25 µM (inactive); under setting [1], greater than 25 µM.

For the compound `COc1ccc(NC(=O)c2oc3ccccc3c2NC(=O)COc2ccccc2OC)c(OC)c1`, the IC50 is, setting by setting: (WT cells) > 25 µM (inactive); under setting [1], greater than 25 µM.

Regarding `Cc1ccc(C)c(C(=O)COC(=O)c2cc([N+](=O)[O-])ccc2NCCO)c1`, the IC50 reads like this: (WT cells) 25 µM (inactive); under setting [1], greater than 12.5 µM.

As for `O=C(/C=C/Nc1cccc(C(F)(F)F)c1)C(F)(F)F`, the IC50 reads like this: (WT cells) > 25 µM (inactive); under setting [1], greater than 25 µM.

Consider `Cc1ccccc1NS(=O)(=O)c1cc(C(=O)N2CCc3ccccc3C2)ccc1C`, for which the IC50 runs as follows: (WT cells) > 25 µM (inactive); under setting [1], greater than 25 µM.

Regarding `CCn1c(O)c(C(c2ccccn2)c2c(O)n(CC)c(=S)[nH]c2=O)c(=O)[nH]c1=S`, the IC50 is, setting by setting: (WT cells) > 25 µM (inactive); under setting [1], greater than 25 µM.

In the case of `COCCN(C(=S)Nc1cccc(C)c1)C(C)c1cccs1` (configuration not stated), the IC50 reads like this: (WT cells) 23.7 µM; under setting [1], greater than 25 µM.

Regarding `Cc1nn(C(C)C(=O)NCC2CCCO2)c(=O)c2cc3occc3n12` (configuration not stated), the IC50 runs as follows: (WT cells) > 25 µM (inactive); under setting [1], greater than 25 µM.

In the case of `C/C(=N\Nc1nc(N2CCCCCC2)nc(N2CCCCCC2)n1)c1ccccc1`, the IC50 is 12.6 µM (WT cells) and greater than 25 µM under setting [1].

`CC(C)c1ccc(OCC(O)Cn2cnc3ccccc32)cc1` (configuration not stated): the IC50 is, setting by setting: (WT cells) > 25 µM (inactive); under setting [1], greater than 25 µM.

Consider `CCc1cccc(C)c1NC(=S)NCCc1c(C)[nH]c2ccc(C)cc12`, for which the IC50 is, setting by setting: (WT cells) > 25 µM (inactive); under setting [1], greater than 25 µM.

Consider `Cc1cc(NC(=O)COC(=O)C(Nc2ccc(C(F)(F)F)cc2Cl)C(C)C)no1` (configuration not stated), for which the IC50 runs as follows: (WT cells) 13.8 µM; under setting [1], 24.2 µM.
